In the supplement of paper PMC10307832:

How the values were obtained:
Experiment in all cases: relative viability (nuclei count vs DMSO), 5 days (fraction); higher = more cells survive
TPCA-1 + Foretinib = compound: C1=CC(=CC=C1C2=CC(=C(S2)NC(=O)N)C(=O)N)F [TPCA-1] + COc1cc2c(Oc3ccc(NC(=O)C4(C(=O)Nc5ccc(F)cc5)CC4)cc3F)ccnc2cc1OCCCN1CCOCC1 [Foretinib] (partner 0.25 µM)
How it was run: (§1)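 Nuclei were stained with Hoechst during a one-step fixation (final 0.05% Triton X-100, 1% formaldehyde, 1 ug/ml Hoechst) carried out 5 days after dosing, then counted on 4× images. The cells, lung cancer lines in 1536-well plates, had been dosed by pin tool the day after seeding with one drug alone or a fixed anchor-drug dose plus five library-drug doses (not always all listed) in √10 steps. Relative viability is the nuclei count in treated wells divided by that in vehicle wells, and each value is the median of duplicate plates.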

TPCA-1 + Lapatinib = compound: C1=CC(=CC=C1C2=CC(=C(S2)NC(=O)N)C(=O)N)F [TPCA-1] + CS(=O)(=O)CCNCc1ccc(-c2ccc3ncnc(Nc4ccc(OCc5cccc(F)c5)c(Cl)c4)c3c2)o1 [Lapatinib] (partner 2 µM)
How it was run: as §1

TPCA-1 + Bortezomib = compound: C1=CC(=CC=C1C2=CC(=C(S2)NC(=O)N)C(=O)N)F [TPCA-1] + CC(C)C[C@H](NC(=O)[C@H](Cc1ccccc1)NC(=O)c1cnccn1)B(O)O [Bortezomib] (partner 0.002 µM)
How it was run: as §1

[1] = compound: C1/C(=C\C2=CC=CS2)/C(=O)/C(=C/C3=CC=CS3)/C1 + CC(=O)c1c(C)c2cnc(Nc3ccc(N4CCNCC4)cn3)nc2n(C2CCCC2)c1=O [Palbociclib] (partner 0.5 µM)
How it was run: as §1

Cell Line | relative viability (TPCA-1 + Foretinib; first compound 0.04 µM) | relative viability (TPCA-1 + Foretinib; first compound 0.1265 µM) | relative viability (TPCA-1 + Foretinib; first compound 0.4 µM) | relative viability (TPCA-1 + Foretinib; first compound 1.265 µM) | relative viability (TPCA-1 + Foretinib; first compound 4 µM) | relative viability (TPCA-1 + Lapatinib; first compound 0.04 µM) | relative viability (TPCA-1 + Lapatinib; first compound 0.1265 µM) | relative viability (TPCA-1 + Lapatinib; first compound 0.4 µM) | relative viability (TPCA-1 + Lapatinib; first compound 1.265 µM) | relative viability (TPCA-1 + Lapatinib; first compound 4 µM) | relative viability (TPCA-1 + Bortezomib; first compound 0.04 µM) | relative viability (TPCA-1 + Bortezomib; first compound 0.1265 µM) | relative viability (TPCA-1 + Bortezomib; first compound 0.4 µM) | relative viability (TPCA-1 + Bortezomib; first compound 1.265 µM) | relative viability (TPCA-1 + Bortezomib; first compound 4 µM) | relative viability ([1]; first compound 0.2 µM) | relative viability ([1]; first compound 0.6325 µM) | relative viability ([1]; first compound 2 µM) | relative viability ([1]; first compound 6.325 µM) | relative viability ([1]; first compound 20 µM)
201T | 1.12 | 1.04 | 1.07 | 1.09 | 0.9 | 1.05 | 1.02 | 1.01 | 1.01 | 1.05 | 1.12 | 1.1 | 1.19 | 1.12 | 1.12 | 0.348 | 0.37 | 0.349 | 0.353 | 0.348
A-427 | 1.01 | 1.05 | 1.05 | 0.921 | 0.695 | 1.17 | 0.901 | 1.05 | 0.989 | 0.907 | 1.05 | 0.981 | 1.08 | 0.976 | 1.07 | 0.546 | 0.552 | 0.519 | 0.481 | 0.5
ABC-1 | 1.28 | 1.11 | 1.27 | 0.964 | 0.778 | 1.19 | 1.06 | 1.22 | 1.21 | 0.854 | 0.369 | 0.225 | 0.291 | 0.297 | 0.293 | 0.707 | 0.614 | 0.886 | 0.64 | 0.513
BEN | 0.654 | 0.549 | 0.671 | 0.679 | 0.303 | 0.731 | 0.5 | 0.672 | 0.793 | 0.661 | 1.17 | 0.53 | 0.805 | 0.999 | 0.587 | 0.504 | 0.531 | 0.511 | 0.411 | 0.518
CAL-12T | 1.21 | 0.989 | 1.15 | 1.08 | 0.716 | 0.638 | 0.582 | 0.708 | 0.38 | 0.389 | 1.07 | 0.941 | 1.03 | 0.767 | 0.607 | 0.531 | 0.654 | 0.555 | 0.49 | 0.489
COR-L23 | 1.11 | 0.884 | 1.05 | 0.916 | 0.803 | 1.09 | 0.859 | 0.903 | 1.09 | 0.678 | 1.27 | 0.854 | 0.983 | 0.937 | 0.751 | 0.333 | 0.283 | 0.338 | 0.294 | 0.297
COR-L 105 | 1.01 | 1.1 | 1.23 | 1.2 | 0.983 | 0.379 | 0.368 | 0.384 | 0.272 | 0.268 | 0.846 | 0.808 | 0.982 | 0.516 | 0.333 | 0.379 | 0.405 | 0.443 | 0.43 | 0.401
EKVX | 0.627 | 0.596 | 0.895 | 0.624 | 0.148 | 0.217 | 0.184 | 0.241 | 0.198 | 0.205 | 0.952 | 0.896 | 1.19 | 0.955 | 0.601 | 0.383 | 0.388 | 0.367 | – | 0.409
EMC-BAC-2 | 1.02 | 0.956 | 1.05 | 1.14 | 0.887 | 0.993 | 0.854 | 0.895 | 0.752 | 0.756 | 1.12 | 1.07 | 1.11 | 1.08 | 0.932 | 0.548 | 0.549 | 0.526 | 0.472 | 0.518
EPLC-272H | 0.747 | 0.643 | 0.815 | 0.456 | 0.309 | 1.28 | 0.829 | 0.947 | 0.954 | 0.775 | 0.96 | 0.974 | 0.962 | 0.87 | 0.821 | 0.326 | 0.327 | 0.356 | 0.213 | 0.345
H3255 | 0.825 | 0.876 | 0.821 | 0.541 | 0.514 | 0.261 | 0.24 | 0.236 | 0.219 | 0.162 | 0.872 | 0.758 | 0.701 | 0.595 | 0.691 | 0.325 | 0.33 | 0.324 | 0.308 | 0.297
HARA | 0.874 | 0.907 | 0.887 | 0.893 | 0.681 | 0.744 | 0.988 | 0.791 | 0.722 | 0.691 | 1.08 | 1.13 | 1.14 | 1.03 | 1.07 | 0.278 | 0.238 | 0.337 | 0.196 | 0.32
HCC-44 | – | – | – | – | – | 0.974 | 0.961 | 1 | 0.913 | 0.904 | 0.903 | 0.789 | 0.908 | 0.745 | 0.883 | 0.984 | 1 | 0.926 | 0.862 | 1.04
NCI-H441 | 0.487 | 0.856 | 0.841 | 0.834 | 0.668 | – | – | – | – | – | 0.63 | 0.32 | 0.42 | 0.266 | 0.404 | 0.242 | 0.217 | 0.234 | 0.197 | 0.25
NCI-H1792 | – | – | – | – | – | 0.964 | 0.893 | 0.843 | 0.9 | 0.455 | 0.97 | 0.924 | 0.84 | 0.964 | 0.559 | 0.665 | 0.656 | 0.713 | 0.331 | 0.627
